Test system: 293T-HRE-GFP-luc cells
Assay: Cell-based reporter assay for IC50 determinations
Conditions: hypoxia 6 hrs (1% O2), luminescence, read-out: IC50 Classification
Summary of the method: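 IC50 comes from a four-parameter logistic fit of luminescence from HRE-GFP-luc 293T cells. Compounds (1:3 series, 1:50 medium dilution) were preincubated 30 min under normoxia, followed by 6 h at 1% O2, 5% CO2, 37 °C, before Steadylite luciferase detection.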

SMILES | IC50
Cc1nc(-c2nc(-c3ccc(OC(F)(F)F)cc3)no2)nn1Cc1cccc(C(=O)O)c1 [Example 119, 3-((5-methyl-3-(3-(4-(trifluoromethoxy)phenyl)-1,2,4-oxadiazol-5-yl)-1H-1,2,4-triazol-1-yl)methyl)benzoic acid] | 0.1 to 1 µM
CNC(=O)c1cccc(Cn2nc(-c3nc(-c4ccc(OC(F)(F)F)cc4)no3)nc2C)c1 [Example 120, N-methyl-3-[(5-methyl-3-{3-[4-(trifluoromethoxy)phenyl]-1,2,4-oxadiazol-5-yl}-1H-1 2 4-triazol-1-yl)methyl]benzamide] | < 0.1 µM
Cc1nc(-c2nc(-c3ccc(OC(F)(F)F)cc3)no2)nn1Cc1ccnc(N2CCCC2)n1 [Example 121, 4-[(5-methyl-3-{3-[4-(trifluoromethoxy)phenyl]-1,2,4-oxadiazol-5-yl}-1H-1,2,4-triazol-1-yl)methyl]-2-(pyrrolidin-1-yl)pyrimidine] | 0.1 to 1 µM
Cc1nc(-c2nc(-c3ccc(OC(F)(F)F)cc3)no2)nn1Cc1cccc(C(=O)NC(C)C)c1 [Example 122, 3-[(5-methyl-3-{3-[4-(trifluoromethoxy)phenyl]-1,2,4-oxadiazol-5-yl}-1H-1,2,4-triazol-1-yl)methyl]-N-(propan-2-yl)benzamide] | < 0.1 µM
Cc1nc(-c2nc(-c3ccc(OC(F)(F)F)cc3)no2)nn1Cc1cccc(C(=O)N2CC(O)C2)c1 [Example 123, 1-{3-[(5-methyl-3-{3-[4-(trifluoromethoxy)phenyl]-1,2,4-oxadiazol-5-yl}-1H-1,2,4-triazol-1-yl)methyl]benzoyl}azetidin-3-ol] | < 0.1 µM
Cc1nc(-c2nc(-c3ccc(OC(F)(F)F)cc3)no2)nn1Cc1cccc(C(=O)NC2CC2)c1 [Example 124, N-cyclopropyl-3-[(5-methyl-3-{3-[4-(trifluoromethoxy]phenyl]-1,2,4-oxadiazol-5-yl}-1H-1,2,4-triazol-1-yl)methyl]benzamide] | < 0.1 µM
Cc1nc(-c2nc(-c3ccc(OC(F)(F)F)cc3)no2)nn1Cc1cccc(C(=O)NC(C)(C)CO)c1 [Example 125, N-(1-hydroxy-2-methylpropan-2-yl)-3-[(5-methyl-3-{3-[4-(trifluoromethoxy)phenyl]-1,2,4-oxadiazol-5-yl}-1H-1,2,4-triazol-1-yl)methyl]benzamide] | < 0.1 µM
Cc1nc(-c2nc(-c3ccc(OC(F)(F)F)cc3)no2)nn1Cc1cccc(OCCC(C)(C)O)c1 [Example 126, 2-methyl-4-{3-[(5-methyl-3-{3-[4-(trifluoromethoxy)phenyl]-1,2,4-oxadiazol-5-yl}-1H-1,2,4-triazol-1-yl)methyl]phenoxy}butan-2-ol] | < 0.1 µM
Cc1nc(-c2nc(-c3ccc(OC(F)(F)F)cc3)no2)nn1Cc1ccc(S(C)(=O)=O)cc1 [Example 127, 5-{1-[(4-methanesulfonylphenyl)methyl]-5-methyl-1H-1,2,4-triazol-3-yl}-3-[4-(trifluoromethoxy)phenyl]-1,2,4-oxadiazole] | 0.1 to 1 µM
Cc1nc(-c2nc(-c3ccc(OC(F)(F)F)cc3)no2)nn1Cc1ccc(=O)n(CCN(C)C)c1 [Example 128, 1-[2-(dimethylamino)ethyl]-5-[(5-methyl-3-{3-[4-(trifluoromethoxy)phenyl]-1,2,4-oxadiazol-5-yl}-1H-1,2,4-triazol-1-yl)methyl]-1,2-dihydropyridin-2-one] | 0.1 to 1 µM
COCCCOc1ccc(Cn2nc(-c3nc(-c4ccc(OC(F)(F)F)cc4)no3)nc2C)cn1 [Example 129, 2-(3-methoxypropoxy)-5-[(5-methyl-3-{3-[4-(trifluoromethoxy)phenyl]-1,2,4-oxadiazol-5-yl}-1H-1,2,4-triazol-1-yl)methyl]pyridine] | 0.1 to 1 µM
Cc1nc(-c2nc(-c3ccc(OC(F)(F)F)cc3)no2)nn1Cc1cccc(S(=O)(=O)NC2CC2)c1 [Example 130, N-cyclopropyl-3-[(5-methyl-3-{3-[4-(trifluoromethoxy)phenyl]-1,2,4-oxadiazol-5-yl}-1H-1,2,4-triazol-1-yl)methyl]benzene-1-sulfonamide] | < 0.1 µM
Cc1nc(-c2nc(-c3ccc(OC(F)(F)F)cc3)no2)nn1Cc1cccc(S(=O)(=O)NCCO)c1 [Example 131, 2-hydroxy-S-(3-[(5-methyl-3-{3-[4-(trifluoromethoxy)phenyl]-1,2,4-oxadiazol-5-yl}-1H-1,2,4-triazol-1-yl)methyl]phenyl}ethane-1-sulfonamido] | < 0.1 µM
COC(=O)[C@@H](NS(=O)(=O)c1cccc(Cn2nc(-c3nc(-c4ccc(OC(F)(F)F)cc4)no3)nc2C)c1)C(C)C [Example 132, methyl (2S)-3-methyl-2-{3-[(5-methyl-3-{3-[4-(trifluoromethoxy)phenyl]-1,2,4-oxadiazol-5-yl}-1H-1,2,4-triazol-1-yl)methyl]benzenesulfonamido}butanoate] | 0.1 to 1 µM
Cc1nc(-c2nc(-c3ccc(OC(F)(F)F)cc3)no2)nn1Cc1cccc(S(=O)(=O)N2CCCC2)c1 [Example 133, 5-(5-methyl-1-{[3-(pyrrolidine-1-sulfonyl)phenyl]methyl}-1H-1,2,4-triazol-3-yl)-3-[4-(trifluoromethoxy)phenyl]-1,2,4-oxadiazole] | < 0.1 µM
COC(=O)CNS(=O)(=O)c1cccc(Cn2nc(-c3nc(-c4ccc(OC(F)(F)F)cc4)no3)nc2C)c1 [Example 134, methyl 2-{3-[(5-methyl-3-{3-[4-(trifluoromethoxy)phenyl]-1,2,4-oxadiazol-5-yl}-1H-1,2,4-triazol-1-yl)methyl]benzenesulfonamido}acetate] | < 0.1 µM
COc1cc(Cn2nc(-c3nc(-c4ccc(OC(F)(F)F)cc4)no3)nc2C)ccn1 [Example 135, 2-methoxy-4-[(5-methyl-3-{3-[4-(trifluoromethoxy)phenyl]-1,2,4-oxadiazol-5-yl}-1H-1,2,4-triazol-1-yl)methyl]pyridine] | 0.1 to 1 µM
CNS(=O)(=O)c1cccc(Cn2nc(-c3nc(-c4ccc(OC(F)(F)F)cc4)no3)nc2C)c1 [Example 136, N-methyl-3-[(5-methyl-3-{3-[4-(trifluoromethoxy)phenyl]-1,2,4-oxadiazol-5-yl}-1H-1,2,4-triazol-1-yl)methyl]benzene-1-sulfonamide] | < 0.1 µM
CCCNS(=O)(=O)c1cccc(Cn2nc(-c3nc(-c4ccc(OC(F)(F)F)cc4)no3)nc2C)c1 [Example 137, 3-[(5-methyl-3-{3-[4-(trifluoromethoxy)phenyl]-1,2,4-oxadiazol-5-yl}-1H-1,2,4-triazol-1-yl)methyl]-N-propylbenzene-1-sulfonamide] | < 0.1 µM
Cc1nc(-c2nc(-c3ccc(OC(F)(F)F)cc3)no2)nn1Cc1cccc(S(=O)(=O)NCC(C)(C)O)c1 [Example 138, 2-hydroxy-2-methyl-S-{3-[(5-methyl-3-{3-[4-(trifluoromethoxy)phenyl]-1,2,4-oxadiazol-5-yl}-1H-1,2,4-triazol-1-yl)methyl]phenyl}propane-1-sulfonamido] | < 0.1 µM
Cc1nc(-c2nc(-c3ccc(OC(F)(F)F)cc3)no2)nn1Cc1cccc(S(=O)(=O)NCC(N)=O)c1 [Example 139, 2-{3-[(5-methyl-3-{3-[4-(trifluoromethoxy)phenyl]-1,2,4-oxadiazol-5-yl}-1H-1,2,4-triazol-1-yl)methyl]benzenesulfonamido}acetamide] | 0.1 to 1 µM
COCCCn1cc(Cn2nc(-c3nc(-c4ccc(OC(F)(F)F)cc4)no3)nc2C)ccc1=O [Example 140, 1-(3-methoxypropyl)-5-[(5-methyl-3-{3-[4-(trifluoromethoxy)phenyl]-1,2,4-oxadiazol-5-yl}-1H-1,2,4-triazol-1-yl)methyl]-1,2-dihydropyridin-2-one] | 0.1 to 1 µM
Cc1nc(-c2nc(-c3ccc(OC(F)(F)F)cc3)no2)nn1Cc1ccnc(OCCCO)c1 [Example 141, 3-({4-[(5-methyl-3-{3-[4-(trifluoromethoxy)phenyl]-1,2,4-oxadiazol-5-yl}-1H-1,2,4-triazol-1-yl)methyl]pyridin-2-yl}oxy)propan-1-ol] | < 0.1 µM
COCCCn1ccc(Cn2nc(-c3nc(-c4ccc(OC(F)(F)F)cc4)no3)nc2C)cc1=O [Example 142, 1-(3-methoxypropyl)-4-[(5-methyl-3-{3-[4-(trifluoromethoxy)phenyl]-1,2,4-oxadiazol-5-yl}-1H-1,2,4-triazol-1-yl)methyl]-1,2-dihydropyridin-2-one] | 0.1 to 1 µM
Cc1nc(-c2nc(-c3ccc(OC(F)(F)F)cc3)no2)nn1Cc1ccnc(OCCN(C)C)c1 [Example 143, dimethyl[2-({4-[(5-methyl-3-{3-[4-(trifluoromethoxy)phenyl]-1,2,4-oxadiazol-5-yl}-1H-1,2,4-triazol-1-yl)methyl]pyridin-2-yl}oxy)ethyl]amine] | 0.1 to 1 µM
Cc1nc(-c2nc(-c3ccc(OC(F)(F)F)cc3)no2)nn1Cc1cccc(OCCCS(C)(=O)=O)c1 [Example 144, 5-(1-([3-(3-methanesulfonylpropoxy)phenyl]methyl)-5-methyl-1H-1,2,4-triazol-3-yl)-3-[4-(trifluoromethoxy)phenyl]-1,2,4-oxadiazole] | < 0.1 µM
Cc1nc(-c2nc(-c3ccc(OC(F)(F)F)cc3)no2)nn1Cc1cccc(N2CCNC(=O)C2)c1 [Example 145, 4-{3-[(5-methyl-3-{3-[4-(trifluoromethoxy)phenyl]-1,2,4-oxadiazol-5-yl}-1H-1,2,4-triazol-1-yl)methyl]phenyl]piperazin-2-one] | < 0.1 µM
Cc1nc(-c2nc(-c3ccc(OC(F)(F)F)cc3)no2)nn1Cc1ccnc(N2CCC(S(C)(=O)=O)CC2)c1 [Example 146, 2-(4-methanesulfonylpiperidin-1-yl)-4-[(5-methyl-3-{3-[4-(trifluoromethoxy)phenyl]-1,2,4-oxadiazol-5-yl}-1H-1,2,4-triazol-1-yl)methyl]pyridine] | < 0.1 µM
Cc1nc(-c2nc(-c3ccc(OC(F)(F)F)cc3)no2)nn1Cc1cccc(N2CCCS2(=O)=O)c1 [Example 147, 2-(3-((5-methyl-3-(3-(4-(trifluoromethoxy)phenyl)-1,2,4-oxadiazol-5-yl)-1H-1,2,4-triazol-1-yl)methyl)phenyl)isothiazolidine 1,1-dioxide] | < 0.1 µM
